The values below come from patent US20050053704A1, “Acidic composition and its uses” (Mionix Corporation, priority 2003, published 2005).

Data set [1] deals with L. monocytogenes. The note with it: cited from earlier work.
The test system of data set [2] is L. monocytogenes. Particulars: dipping in 5% acid, refrigerated storage; cited from earlier work.
Data set [3] can be described thus: Contact of acidic solution with human skin. The note with it: solution with a pH of less than 0.5.

Molecules are shown by their SMILES. Read-outs that look alike come from different tables or passages of the source.

On to `CC(O)C(=O)[O-].[Na+]` (stereo not drawn) [Sodium lactate], for which the “Effect on growth of L. monocytogenes” value in the data set on L. monocytogenes [1] (3 or 4% compared to 0 or 2%, cooked beef stored at 10° C. (Miller and Acuff 1994)) is on record as “effective against the growth”. Regarding `CC(=O)O` [acetic acid], the “Effect on L. monocytogenes of dipping in acid” value with L. monocytogenes [2] is on record as “not only killed, but also prevented from growing during 90 days of refrigerated storage”. On to `CC(O)C(=O)O` (stereo not drawn) [lactate], for which the “Effect on growth of L. monocytogenes” value in the data set on L. monocytogenes [1] (lactate (4%), sterile broth, chicken and beef (Shelef and Yang 1991)) was “growth suppression”. Further, the “Listeristatic effect, L. monocytogenes strain Scott A” value in the data set on L. monocytogenes [1] (lactate concentrations less than 4%, meat model system (Chen and Shelef 1992)) was “not listeristatic”. For the compound `CC(O)C(=O)O` (stereo not drawn) [lactic acid], in the data set on L. monocytogenes [2], the “Effect on L. monocytogenes of dipping in acid” value is listed as “not only killed, but also prevented from growing during 90 days of refrigerated storage”. Take `O=S(=O)(O)O` [sulfuric acid]: the “Irritation of a hand put into the solution” value in data set [3] is “an irritation would occur within a relatively short span of time”.
